Measurements from patent US20250101062A1, “ANTIMICROBIAL PEPTIDES” (Board of Regents of the University of Nebraska, priority 2023, published 2025).
Where two headings read alike, the source gives them in different places. Where no end group is shown, it is not given here.

Assays:
[1] = test system: S. aureus USA300 biofilms in murine wounds; assay: In vivo biofilm assay, murine wound model; parameters: species or system BALB/c mice; conditions: topical, 24 h
Procedure: Preparation of Inoculum. An overnight culture of S. aureus USA300 LAC was inoculated in fresh MHB and incubated at 37° C. for 3 hours. The suspension was centrifuged at 3000 g for 5 minutes, and the supernatant was discarded. The bacteria were resuspended in 1×PBS, and the OD600 was adjusted to 0.6 (˜3×10^7 CFU/mL).
Experimental Animals. An alternative murine wound model has been established which is slightly different from other studies (Su, et al. (2019) Mol. Pharmaceutics 16:2011-2020; Su, et al. (2023) J. Controlled Release 356:131-141). Female BALB/c mice (3-4 weeks, ˜20 g) were fed with standardized food (Teklad Laboratory diet for rodents) and water (Hydropac Alternative Watering System) ad libitum. Mice were kept in ventilated cages (IVCs) at a temperature of 20-24° C., a humidity of 50-60%, 60 air exchanges per hour, and a 12/12 hour light/dark cycle. All materials, including IVCs, lids, feeders, bottles, bedding, and water, were autoclaved before use. All animal manipulations were performed in a class II laminar flow biological safety cabinet. The study was approved by the Institutional Animal Care and Use Committee (IACUC) of UNMC (Protocol no. 22-015-08-FC).
In Vivo Biofilm Assay. Mice were anesthetized by intraperitoneal injection of ketamine-xylazine (100 mg/kg+10 mg/kg). […] Finally, the plates were incubated at 37° C. for 20 hours and the CFUs were counted. […]

P. aeruginosa E411-17 = assay: microbe, parasite or virus in culture; type: cell-based, Pseudomonas aeruginosa; conditions: for MIC: read-out: Antimicrobial activity (MIC)
How it was run: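 Broth microdilution with twofold peptide dilutions, using exponential-phase bacteria at about 10^5 CFU/mL in MHB, incubated overnight at 37 °C and read at OD600. MIC, reported as a range, is the peptide concentration with no growth. Some tests used diluted MHB/TSB/LB, adjusted pH, or added NaCl or human serum.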

E. coli E423-17 = type: cell-based, Escherichia coli; conditions: MHB 100%

Compound: RRWWRWWR-NH2 [W543]
- bacterial CFU decrease ([1]; 4.4 mg/kg per wound): 2 log
- Activity (MIC) P. aeruginosa (P. aeruginosa E411-17; E411-17): 8 µM

Compound: CCCCCCCCCC(=O)N[C@@H](Cc1c[nH]c2ccccc12)C(=O)N[C@H](CC(N)=O)C(=O)N[C@@H](CC(=O)O)C(=O)N[C@@H]1C(=O)NCC(=O)N[C@@H](CCCN)C(=O)N[C@@H](CC(=O)O)C(=O)N[C@H](C)C(=O)N[C@@H](CC(=O)O)C(=O)NCC(=O)N[C@H](CO)C(=O)N[C@@H]([C@H](C)CC(=O)O)C(=O)N[C@@H](CC(=O)c2ccccc2N)C(=O)O[C@@H]1C [Daptomycin]
- reduction of bacterial burden ([1]; 10 mg/kg per wound): ~3 logs
- MIC (P. aeruginosa E411-17; Human serum 5%): >8 µM
- MIC (P. aeruginosa E411-17; Human serum 10%): >8 µM
- MIC (P. aeruginosa E411-17; Pseudomonas aeruginosa, E41117, pH 6.21): > 8 µM
- MIC (P. aeruginosa E411-17; Pseudomonas aeruginosa, E41117, pH 7.22): > 8 µM
- MIC (P. aeruginosa E411-17; Pseudomonas aeruginosa, E41117, pH 8.13): > 8 µM
- MIC (P. aeruginosa E411-17; Pseudomonas aeruginosa, E41117, NaCl (150 mM)): > 8 µM

Compound: CC[C@H](C)[C@H](NC(=O)[C@H](CCCCN)NC(=O)[C@H](CCC(=O)O)NC(=O)[C@H](CCCCN)NC(=O)[C@H](CO)NC(=O)[C@H](CCCCN)NC(=O)[C@H](CCCNC(=N)N)NC(=O)[C@H](Cc1ccccc1)NC(=O)[C@H](Cc1ccccc1)NC(=O)[C@H](CC(=O)O)NC(=O)CNC(=O)[C@H](CC(C)C)NC(=O)[C@@H](N)CC(C)C)C(=O)NCC(=O)N[C@@H](CCCCN)C(=O)N[C@@H](CCC(=O)O)C(=O)N[C@@H](Cc1ccccc1)C(=O)N[C@@H](CCCCN)C(=O)N[C@@H](CCCNC(=N)N)C(=O)N[C@H](C(=O)N[C@H](C(=O)N[C@@H](CCC(N)=O)C(=O)N[C@@H](CCCNC(=N)N)C(=O)N[C@H](C(=O)N[C@@H](CCCCN)C(=O)N[C@@H](CC(=O)O)C(=O)N[C@@H](Cc1ccccc1)C(=O)N[C@@H](CC(C)C)C(=O)N[C@@H](CCCNC(=N)N)C(=O)N[C@@H](CC(N)=O)C(=O)N[C@@H](CC(C)C)C(=O)N[C@H](C(=O)N1CCC[C@H]1C(=O)N[C@@H](CCCNC(=N)N)C(=O)N[C@H](C(=O)N[C@@H](CCC(=O)O)C(=O)N[C@@H](CO)C(=O)O)[C@@H](C)O)C(C)C)[C@@H](C)CC)C(C)C)[C@@H](C)CC [LL-37]
- Antimicrobial activity (MIC) (E. coli E423-17): active
